Data taken from patent publication US7138361B2, “Herbicidal heterocycles” (E. I. du Pont de Nemours and Company, priority 2000, dated 2006).

What was measured:
Type in all cases: in vivo
[1] = tested on: morning glory (Ipomoea spp.); assay: Test A postemergence, sprayed to runoff; parameters: scale not given here; details: Morningglory, approx. eleven days
Protocol: (§1) Seeds of barnyardgrass (Echinochloa crus-galli), crabgrass (Digitaria spp.), giant foxtail (Setaria viridis), morning glory (Ipomoea spp.), redroot pigweed (Amaranthus retroflexus) and velvetleaf (Abutilon theophrasti) were planted into a sandy loam soil and treated preemergence by soil drench with test chemicals formulated in a non-phytotoxic solvent mixture which included a surfactant. At the same time, these crop and weed species were also treated postemergence sprayed to runoff with test chemicals formulated in the same manner. Plants ranged in height from two to eighteen cm and were in the one- to two-leaf stage for the postemergence treatment. Treated plants and untreated controls were maintained in a greenhouse for approximately eleven days, after which time all treated plants were compared to untreated controls and visually evaluated for injury. Plant response ratings, summarized in Table A, are based on a 0 to 10 scale where 0 is no effect and 10 is complete control. A dash (-) response means no test results.

[2] = tested on: velvetleaf (Abutilon theophrasti); assay: Test A postemergence, sprayed to runoff; parameters: scale not given here; details: approx. eleven days
Protocol: as §1

[3] = tested on: barnyardgrass (Echinochloa crus-galli); assay: Test A postemergence, sprayed to runoff; details: approx. eleven days
Protocol: as §1

[4] = tested on: crabgrass (Digitaria spp.); assay: Test A postemergence, sprayed to runoff; details: approx. eleven days
Protocol: as §1

[5] = tested on: giant foxtail (Setaria viridis); assay: Test A postemergence, sprayed to runoff; details: approx. eleven days
Protocol: as §1

[6] = tested on: redroot pigweed (Amaranthus retroflexus); assay: Test A postemergence, sprayed to runoff; details: approx. eleven days
Protocol: as §1

[7] = tested on: barnyardgrass (Echinochloa crus-galli); assay: Test A preemergence, soil drench; details: approx. eleven days
Protocol: as §1

[8] = tested on: crabgrass (Digitaria spp.); assay: Test A preemergence, soil drench; details: approx. eleven days
Protocol: as §1

[9] = tested on: giant foxtail (Setaria viridis); assay: Test A preemergence, soil drench; details: approx. eleven days
Protocol: as §1

[10] = tested on: morning glory (Ipomoea spp.); assay: Test A preemergence, soil drench; details: Morningglory, approx. eleven days
Protocol: as §1

[11] = tested on: redroot pigweed (Amaranthus retroflexus); assay: Test A preemergence, soil drench; details: approx. eleven days
Protocol: as §1

[12] = tested on: velvetleaf (Abutilon theophrasti); assay: Test A preemergence, soil drench; details: approx. eleven days
Protocol: as §1

| SMILES | Plant response rating (visual injury vs untreated controls) ([1]; Rate 500 g/ha) | Plant response rating (visual injury vs untreated controls) ([1]; Rate 2000 g/ha) | Plant response rating (visual injury vs untreated controls) ([2]; Rate 500 g/ha) | Plant response rating (visual injury vs untreated controls) ([2]; Rate 2000 g/ha) | Plant response rating (visual injury vs untreated controls) ([3]; Rate 500 g/ha) | Plant response rating (visual injury vs untreated controls) ([3]; Rate 2000 g/ha) | Plant response rating (visual injury vs untreated controls) ([4]; Rate 500 g/ha) | Plant response rating (visual injury vs untreated controls) ([4]; Rate 2000 g/ha) | Plant response rating (visual injury vs untreated controls) ([5]; Rate 500 g/ha) | Plant response rating (visual injury vs untreated controls) ([5]; Rate 2000 g/ha) | Plant response rating (visual injury vs untreated controls) ([6]; Rate 500 g/ha) | Plant response rating (visual injury vs untreated controls) ([6]; Rate 2000 g/ha) | Plant response rating (visual injury vs untreated controls) ([7]; Rate 500 g/ha) | Plant response rating (visual injury vs untreated controls) ([7]; Rate 2000 g/ha) | Plant response rating (visual injury vs untreated controls) ([8]; Rate 500 g/ha) | Plant response rating (visual injury vs untreated controls) ([8]; Rate 2000 g/ha) | Plant response rating (visual injury vs untreated controls) ([9]; Rate 500 g/ha) | Plant response rating (visual injury vs untreated controls) ([9]; Rate 2000 g/ha) | Plant response rating (visual injury vs untreated controls) ([10]; Rate 500 g/ha) | Plant response rating (visual injury vs untreated controls) ([10]; Rate 2000 g/ha) | further results |
| --- | --- | --- | --- | --- | --- | --- | --- | --- | --- | --- | --- | --- | --- | --- | --- | --- | --- | --- | --- | --- | --- |
| CCC(C)c1nn(C2CCN(c3cccc(C(F)(F)F)c3)C2=O)cc1Cl (stereo not drawn) [Compound 13] | 0 | 0 | 0 | 0 | 0 | 0 | 0 | 0 | 0 | 0 | 20 | 70 | 0 | 10 | 0 | 80 | 20 | 90 | 0 | 20 | Plant response rating (visual injury vs untreated controls) ([11]; Rate 500 g/ha): 80; Plant response rating (visual injury vs untreated controls) ([11]; Rate 2000 g/ha): 100; Plant response rating (visual injury vs untreated controls) ([12]; Rate 500 g/ha): 0; Plant response rating (visual injury vs untreated controls) ([12]; Rate 2000 g/ha): 0 |
| CC(C)(C)c1nn(C2CCN(c3cccc(C(F)(F)F)c3)C2=O)cc1Cl (stereo not drawn) [Compound 14] | 0 | 0 | 0 | 0 | 0 | 0 | 0 | 0 | 0 | 0 | 0 | 20 | 0 | 0 | 0 | 0 | 0 | 0 | 0 | 0 | Plant response rating (visual injury vs untreated controls) ([11]; Rate 500 g/ha): 40; Plant response rating (visual injury vs untreated controls) ([11]; Rate 2000 g/ha): 70; Plant response rating (visual injury vs untreated controls) ([12]; Rate 500 g/ha): 0; Plant response rating (visual injury vs untreated controls) ([12]; Rate 2000 g/ha): 0 |
| O=C1C(n2cccn2)CCN1c1cccc(C(F)(F)F)c1 (stereo not drawn) [Compound 15] | 30 | 20 | 0 | 10 | 10 | 10 | 10 | 10 | 10 | 10 | 0 | 0 | 10 | 10 | 80 | 100 | 50 | 100 | 0 | 0 | Plant response rating (visual injury vs untreated controls) ([11]; Rate 500 g/ha): 30; Plant response rating (visual injury vs untreated controls) ([11]; Rate 2000 g/ha): 100; Plant response rating (visual injury vs untreated controls) ([12]; Rate 500 g/ha): 30; Plant response rating (visual injury vs untreated controls) ([12]; Rate 2000 g/ha): 100 |
| Cc1ccn(C2CCN(c3cccc(C(F)(F)F)c3)C2=O)n1 (stereo not drawn) [Compound 16] | 20 | 20 | 0 | 20 | 0 | 10 | 10 | 20 | 0 | 30 | 0 | 0 | 10 | 70 | 100 | 100 | 80 | 90 | 0 | 20 | Plant response rating (visual injury vs untreated controls) ([11]; Rate 500 g/ha): 80; Plant response rating (visual injury vs untreated controls) ([11]; Rate 2000 g/ha): 100; Plant response rating (visual injury vs untreated controls) ([12]; Rate 500 g/ha): 10; Plant response rating (visual injury vs untreated controls) ([12]; Rate 2000 g/ha): 100 |
| O=C1C(n2ccc(C3CC3)n2)SCN1c1cccc(C(F)(F)F)c1 (stereo not drawn) [Compound 26] | 20 | 50 | 10 | 10 | 90 | 90 | 30 | 20 | 50 | 100 | 40 | 80 | 100 | 100 | 100 | 100 | 100 | 100 | 0 | 30 | Plant response rating (visual injury vs untreated controls) ([11]; Rate 500 g/ha): 100; Plant response rating (visual injury vs untreated controls) ([11]; Rate 2000 g/ha): 100; Plant response rating (visual injury vs untreated controls) ([12]; Rate 500 g/ha): 50; Plant response rating (visual injury vs untreated controls) ([12]; Rate 2000 g/ha): 40 |
| CC(C)c1ccn(C2OCN(c3cccc(C(F)(F)F)c3)C2=O)n1 (stereo not drawn) [Compound 27] | 0 | 20 | 0 | 20 | 70 | 80 | 20 | 60 | 50 | 90 | 20 | 80 | 100 | 100 | 100 | 90 | 100 | 100 | 0 | 20 | Plant response rating (visual injury vs untreated controls) ([11]; Rate 500 g/ha): 100; Plant response rating (visual injury vs untreated controls) ([11]; Rate 2000 g/ha): 100; Plant response rating (visual injury vs untreated controls) ([12]; Rate 500 g/ha): 20; Plant response rating (visual injury vs untreated controls) ([12]; Rate 2000 g/ha): 10 |
| O=C1C(n2ccc(C3CC3)n2)OCN1c1cccc(C(F)(F)F)c1 (stereo not drawn) [Compound 28] | 10 | 20 | 0 | 50 | 60 | 60 | 20 | 40 | 80 | 90 | 20 | 80 | 100 | 100 | 90 | 100 | 100 | 100 | 0 | 0 | Plant response rating (visual injury vs untreated controls) ([11]; Rate 500 g/ha): 100; Plant response rating (visual injury vs untreated controls) ([11]; Rate 2000 g/ha): 100; Plant response rating (visual injury vs untreated controls) ([12]; Rate 500 g/ha): 10; Plant response rating (visual injury vs untreated controls) ([12]; Rate 2000 g/ha): 10 |
